pIC50: −log10 of the molar value.
Assays:
[1] = test system: BRCA1 mRNA expression in MDA-MB-231 cells; assay: qRT-PCR assay: inhibition of BRCA1 mRNA expression in MDA-MB-231 cells; type: cell-based, human; details: Homo sapiens, MDA-MB-231, 24 h, 24 h exposure, BRCA1 mRNA normalised to GAPDH, median, read-out: RTqPCR-MDA-MB-231 IC50 [mol/l] BRCA1 (median)
[2] = test system: BRCA1 mRNA expression in CAL-120 cells; assay: qRT-PCR assay: inhibition of BRCA1 mRNA expression in CAL-120 cells; type: cell-based; details: Homo sapiens, median, read-out: RTqPCR-CAL-120 IC50 [mol/l] BRCA1 (median)
Procedure: 3. qRT-PCR Assay: BRCA1, ATR, MCL1 in MDA-MB-231, CAL-120
Tissue cultured human MDA-MB-231 human breast cancer cells were plated in 500 microL per well at 200,000 cells/well in a 24 well microtiter plate. After 24 h, the cells were exposed continuously for 24 h to test substances (substances were added with Tecan HP D300 Dispenser). RNA was prepared using Qiagen RNeasy MiniKit (#74106), RNA was quantified using a NanoDrop Equipment, and 600 nano gamms of RNA was coverted to cDNA using a SuperScript VILO kit (Thermofisher #11755050) followed by qPCR amplification. BRCA1 and ATR gene expression was measured by RT-qPCR and normalised to GAPDH housekeeping gene expression. qPCR primer sets have been purchased from Thermo Fisher Scientific/Applied Biosystems: BRCA1, # Hs 01556193; ATR, #Hs 00992123; GAPDH, #Hs 03929097.

[3] = test system: MDA-MB-231 human breast cancer cells; assay: Proliferation assay MDA-MB-231 (crystal violet); type: cell-based; details: Homo sapiens, MDA-MB-231, 96 h, MDA-MB-231 cells, 4 days, median, read-out: Prolif-MDA MB231 IC50 - [mol/l] (median)
Method in brief: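 Cells seeded at 4,000/well in medium with 10% fetal calf serum, dosed after 24 h (0.01-10 micromol/L, 0.1% DMSO) and grown 4 days. Crystal violet staining read at 595 nm, normalised to zero-point plate (0%) and untreated cells (100%); IC50 by 4-parameter fit.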

CDK12 = molecular target: T1, CDK12 (Homo sapiens, UniProt Q9NYV4); assay: CDK12 protein level in CAL-120 cells (Protein Simple); type: cell-based; details: 18 h, CDK12/HSP90 peak area ratio, median, read-out: CDK12 protein level in CAL-120 breast ca cells DC50 - [mol/l] (median)
T1 construct: endogenous in cells; host or cells: CAL-120 human breast cancer cells (DSMZ ACC 459)
Procedure: 5. CDK12 protein level: Protein Simple (CDK12, CAL-120), Westernblot (CDK9, 12, 13)
CAL-120 human breast cancer cells (DSMZ ACC 459) were seeded at 300,000 cells/well in 6-well plates containing 2 mL of growth medium (DMEM, 10%FCS, glutamine) and incubated for 24 h at 37° C. in an humidified incubator. Test compounds were added at various concentrations, control wells received solvent (DMSO), and the plates were incubated for another 18h at 37° C. Cells were washed 2 times with PBS and lysed in 75 microL lysis buffer (MSD-Puffer (MSD, #R6OTX-2), +1% SDS+PhosSTOP (Roche #04906837001)+complete mini (Roche #04693159001)) by scraping. The lysates were pushed 2 times through Qiashedders followed by centrifugation at 14,000 rpm for 30-50 sec. The supernatant was stored at -20° C. […] CDK12 and HSP90 (loading control) were detected using anti-human CDK12 antibody (Cell Signaling Technologies (CST) #11793) at 1:25 dilution and anti-human HSP90 antibody (CST #4877) at 1:5,000 dilution. CDK12 and HSP90 peak areas were determined using Protein Simple Compass software. Ratio of CDK12/HSP90 peak areas were calculated for each sample, and DC50 values (degrading concentration to achieve 50% reduction relative to vehicle treated control) were determined by means of a 4 parameter fit.

T1 sequence (Q9NYV4 whole entry): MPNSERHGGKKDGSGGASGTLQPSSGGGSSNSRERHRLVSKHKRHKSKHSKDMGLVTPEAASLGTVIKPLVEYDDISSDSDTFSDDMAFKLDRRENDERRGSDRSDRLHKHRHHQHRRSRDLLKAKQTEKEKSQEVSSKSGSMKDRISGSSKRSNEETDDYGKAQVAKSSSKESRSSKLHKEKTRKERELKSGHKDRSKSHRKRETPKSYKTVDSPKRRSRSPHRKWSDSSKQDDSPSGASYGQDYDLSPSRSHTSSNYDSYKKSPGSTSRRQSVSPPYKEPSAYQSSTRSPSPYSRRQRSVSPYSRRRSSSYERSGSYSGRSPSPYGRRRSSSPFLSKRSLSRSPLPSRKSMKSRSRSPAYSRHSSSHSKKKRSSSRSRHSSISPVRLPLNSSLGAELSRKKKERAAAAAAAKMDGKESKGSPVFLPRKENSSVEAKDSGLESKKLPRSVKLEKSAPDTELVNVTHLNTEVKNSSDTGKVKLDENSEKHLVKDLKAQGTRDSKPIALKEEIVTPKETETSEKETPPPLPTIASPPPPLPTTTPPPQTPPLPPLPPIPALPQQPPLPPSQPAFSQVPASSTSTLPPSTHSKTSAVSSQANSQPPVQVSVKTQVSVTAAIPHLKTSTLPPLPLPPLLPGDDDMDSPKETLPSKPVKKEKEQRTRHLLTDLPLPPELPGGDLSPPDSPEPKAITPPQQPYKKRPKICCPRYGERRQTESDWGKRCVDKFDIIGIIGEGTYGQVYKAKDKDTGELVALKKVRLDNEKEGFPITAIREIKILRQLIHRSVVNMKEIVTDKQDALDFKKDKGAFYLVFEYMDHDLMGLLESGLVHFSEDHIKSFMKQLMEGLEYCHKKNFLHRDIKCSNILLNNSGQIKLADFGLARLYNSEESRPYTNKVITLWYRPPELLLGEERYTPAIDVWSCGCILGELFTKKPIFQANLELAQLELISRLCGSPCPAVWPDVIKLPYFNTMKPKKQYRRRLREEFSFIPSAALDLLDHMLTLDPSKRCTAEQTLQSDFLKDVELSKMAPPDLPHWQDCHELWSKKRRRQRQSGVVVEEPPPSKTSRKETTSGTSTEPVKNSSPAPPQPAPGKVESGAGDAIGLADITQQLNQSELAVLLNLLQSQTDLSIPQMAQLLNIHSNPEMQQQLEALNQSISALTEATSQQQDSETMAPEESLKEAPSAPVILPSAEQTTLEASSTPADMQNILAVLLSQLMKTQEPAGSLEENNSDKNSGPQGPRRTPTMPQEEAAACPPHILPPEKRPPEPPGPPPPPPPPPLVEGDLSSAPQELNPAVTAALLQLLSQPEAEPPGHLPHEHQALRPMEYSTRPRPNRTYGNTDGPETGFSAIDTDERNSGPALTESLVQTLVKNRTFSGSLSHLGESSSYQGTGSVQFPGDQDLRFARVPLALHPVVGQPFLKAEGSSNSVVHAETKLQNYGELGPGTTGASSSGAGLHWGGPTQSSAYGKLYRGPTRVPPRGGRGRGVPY
T1 sequence (O75909 whole entry partner): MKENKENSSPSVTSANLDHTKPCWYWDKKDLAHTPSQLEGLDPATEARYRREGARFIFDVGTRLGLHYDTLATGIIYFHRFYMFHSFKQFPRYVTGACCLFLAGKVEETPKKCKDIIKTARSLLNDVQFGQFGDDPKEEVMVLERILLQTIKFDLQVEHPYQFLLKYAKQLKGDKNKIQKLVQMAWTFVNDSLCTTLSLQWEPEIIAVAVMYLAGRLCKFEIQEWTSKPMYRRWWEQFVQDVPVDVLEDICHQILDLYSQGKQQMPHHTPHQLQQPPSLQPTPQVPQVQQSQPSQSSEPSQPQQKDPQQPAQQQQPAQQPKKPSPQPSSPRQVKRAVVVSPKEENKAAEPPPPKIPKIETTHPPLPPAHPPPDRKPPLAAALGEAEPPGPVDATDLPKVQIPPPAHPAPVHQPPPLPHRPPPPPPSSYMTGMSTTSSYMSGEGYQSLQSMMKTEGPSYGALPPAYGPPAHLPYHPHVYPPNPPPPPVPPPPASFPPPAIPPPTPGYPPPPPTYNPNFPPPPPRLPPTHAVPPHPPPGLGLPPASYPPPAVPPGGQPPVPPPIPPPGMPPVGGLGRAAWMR

c1ccc2[nH]c(CNc3nn(C4CCOCC4)c4nc(C5CC5)cnc34)nc2c1 [Example 16, N-[(1H-benzimidazol-2-yl)methyl]-6-cyclopropyl-1-(oxan-4-yl)-1H-pyrazolo[3,4-b]pyrazin-3-amine]
pIC50 [1]: 7.89 | pIC50 [2]: 7.19 | pIC50 [3]: 7.15 | DC50 (CDK12): 31.1 nM

Source: patent US20230192700A1, “PYRAZOLOPYRAZINES ACTING ON CANCERS VIA INHIBITION OF CDK12” (Bayer Aktiengesellschaft, priority 2020, published 2023)
